Laboratory results: publication PMC9579956 (RSC Medicinal Chemistry, 2022)
Like-named read-outs stand apart in the source and are kept apart here.

Columns and labels:
[1] = target: T1, Mycobacterium thermoresistible (Mtr) LpqY (Mycolicibacterium thermoresistibile, UniProt G7CES0); assay type: binding; conditions: for Hit validation Binding score: MST re-evaluation of hits against LpqY; for Validation binding score (MST): quadruplicate, new batch of LpqY
[2] = target: T1, Mycobacterium thermoresistible (Mtr) LpqY; assay type: binding; conditions: for Screen signal/noise ratio (MST S/N): compound 100 μM, LpqY 500 nM, 10% DMSO, duplicate; for Pathogen Box screen signal/noise ratio: single dose MST screen against LpqY

T1 sequence (G7CES0 29-471): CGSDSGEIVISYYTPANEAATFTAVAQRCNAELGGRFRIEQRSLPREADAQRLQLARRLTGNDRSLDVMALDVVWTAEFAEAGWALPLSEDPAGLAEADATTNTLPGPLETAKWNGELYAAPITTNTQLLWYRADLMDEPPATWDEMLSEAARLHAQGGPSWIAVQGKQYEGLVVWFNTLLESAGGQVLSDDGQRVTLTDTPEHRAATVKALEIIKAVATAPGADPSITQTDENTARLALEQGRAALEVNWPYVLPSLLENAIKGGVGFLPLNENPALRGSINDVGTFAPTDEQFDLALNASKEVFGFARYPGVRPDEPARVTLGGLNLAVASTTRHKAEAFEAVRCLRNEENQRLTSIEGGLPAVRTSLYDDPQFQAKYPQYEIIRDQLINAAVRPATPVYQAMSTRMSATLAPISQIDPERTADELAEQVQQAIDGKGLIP

Row | Compound | Pathogen Box screen signal/noise ratio [2] | also measured
1 | C[C@H]1c2cccc(O)c2C(=O)C2=C(O)[C@]3(O)C(=O)C(C(N)=O)=C(O)[C@@H](N(C)C)[C@@H]3[C@@H](O)[C@@H]21 [MMV000011, Doxycycline, reference compound] | 5.8 | Hit validation Binding score [1]: 6.5; Validation binding score (MST) [1]: 6.5; Validation binding score (MST) ([1]; listed as doxycycline): > 5; Screen signal/noise ratio (MST S/N) [2]: 5.8
2 | COc1ccccc1C(C)NCC(=O)Nc1cc(C(F)(F)F)ccc1Cl (centres unmarked) [MMV020321, N-[2-chloro-5-(trifluoromethyl)phenyl]-2-[1-(2-methoxyphenyl)ethylamino]acetamide] | 5.5 | Hit validation Binding score [1]: 1.9; Validation binding score (MST) [1]: 1.9; Screen signal/noise ratio (MST S/N) [2]: 5.5
3 | O=[N+]([O-])c1cn2c(n1)OC[C@@H](OCc1ccc(OC(F)(F)F)cc1)C2 [MMV688755] | 0.4 | 
4 | CC(=O)NC[C@H]1CN(c2ccc(N3CCSCC3)c(F)c2)C(=O)O1 [MMV688756] | 1.1 | 
5 | CS(=O)(=O)c1ccc(C(=O)N(CC2CCCO2)c2nc3ccccc3s2)cc1[N+](=O)[O-] (centres unmarked) [MMV688761] | 0.6 | 
6 | c1ccc(-c2[nH]c3ccccc3c2C(c2ccccn2)N2CCCC2)cc1 (centres unmarked) [MMV688762] | 0.9 | 
7 | CNc1nnc(Sc2cnn(-c3ccccc3)c(=O)c2Cl)s1 [MMV688763] | 4.7 | 
8 | COc1ccc(-c2onc(C(F)(F)F)c2-c2ccc(Cl)cc2)c(O)c1 [MMV688766] | 0.9 | 
9 | Cc1[nH]c2ccccc2c1C(c1cccs1)N1CCN(C)CC1 (centres unmarked) [MMV688768] | 2.1 | 
10 | Cc1ccccc1C(=O)N1N=C(Nc2ccccc2)SC1(C)C [MMV688771] | 0.4 | 
11 | O=C(Cn1ccnc1[N+](=O)[O-])NCc1ccccc1 [MMV688773] | 2.9 | 
12 | CC[C@@H]([C@H](C)O)n1ncn(-c2ccc(N3CCN(c4ccc(OC[C@@H]5CO[C@@](Cn6cncn6)(c6ccc(F)cc6F)C5)cc4)CC3)cc2)c1=O [MMV688774] | 3.4 | 
13 | CO[C@H]1/C=C/O[C@@]2(C)Oc3c(C)c(O)c4c(O)c(/c(=C/NN5CCN(C)CC5)c(O)c4c3C2=O)=N\C(=O)/C(C)=C\C=C/[C@H](C)[C@H](O)[C@@H](C)[C@@H](O)[C@@H](C)[C@H](OC(C)=O)[C@@H]1C [MMV688775] | 1.1 | 
14 | Cc1nn2c(=O)c3c([nH]c2c1-c1ccc(Cl)cc1)CCCC3 [MMV688776] | 1.5 | 
15 | Cc1cccnc1NC(=O)c1cccc(OCc2c(C)noc2C)c1 [MMV688793] | 0.4 | 
16 | O=C(NCCc1ccn(-c2ccccc2)n1)C1CCCCC1 [MMV688795] | 0.0455 | 
17 | O=C(NCc1nnc2n1CCCCC2)c1ccc(-c2ccc(F)cc2)o1 [MMV688796] | 0.278 | 
18 | CC1CCCCN1C(=O)NCCc1coc(-c2ccc(F)cc2)n1 (centres unmarked) [MMV688797] | 1.4 | 
19 | COc1ccc2nccc(NC(=O)C3CCN(CCc4ccc(Cl)cc4)CC3)c2n1 [MMV688844] | 0.7 | 
20 | O=C(N[C@H](Cc1ccccc1)C(=O)Nc1ccccc1N1CCOCC1)c1cccs1 [MMV688845] | 1.6 | 
21 | Cc1ccccc1CN1CCC(O)(c2ccc(Cl)c(C(F)(F)F)c2)CC1 [MMV688846] | 0.25 | 
22 | CC(C)(C)n1nc(Cc2ccc(F)c(Cl)c2)c2c(N)ncnc21 [MMV688852] | 0.7 | 

Row | Compound | Pathogen Box screen signal/noise ratio [2] | also measured
23 | CCOc1ccc2cc(-c3nn(C(C)(C)C)c(N)c3C(N)=O)cnc2c1 [MMV688853] | 3.8 | 
24 | CCOc1ccc2cc(-c3nn(CC4CCN(C)CC4)c4ncnc(N)c34)ccc2c1 [MMV688854] | 1.2 | 
25 | CN1CCN(c2cc(-c3ccc(F)cc3)nc(-c3ccncc3)n2)CC1 [MMV688888] | 2.6 | 
26 | Clc1ccc(CCNc2cc(-c3ccccc3)nc3ncnn23)cc1 [MMV688889] | 3.0 | 
27 | COc1cc(Br)cc2cc(C(=O)Nc3cccc(C(F)(F)F)c3)c(=O)oc12 [MMV688891] | 0.646 | 
28 | OC[C@H]1O[C@@H](n2c3ccc(Cl)cc3c3c(-c4cc5ccccc5o4)ncnc32)C(O)[C@H]1O (some centres unmarked) [MMV688921] | 1.1 | 
29 | CCc1nn(C)c(C(=O)NCc2ccc(Oc3ccc(C)cc3)cc2)c1Cl [MMV688934] | 1.5 | 
30 | O=C(c1ccco1)N(CCCn1ccnc1)c1nc2c(Cl)cccc2s1 [MMV688936] | 1.4 | 
31 | CCOc1ccc(-c2nc(CNCCc3ccc(F)cc3)cs2)cc1 [MMV688938] | -0.25 | 
32 | Cc1ccc2nc(C)c(-c3ccn(Cc4ccccc4)n3)n2c1 [MMV688939] | -0.2 | 
33 | COc1cc(CN2CCC3(C=Cc4ccccc43)CC2)cc2c1OCO2 [MMV688941] | 0.5 | 
34 | CC(C)(C)C(O)C(Oc1ccc(-c2ccccc2)cc1)n1cncn1 (centres unmarked) [MMV688942] | 0.451 | 
35 | CC1COC(Cn2cncn2)(c2ccc(Oc3ccc(Cl)cc3)cc2Cl)O1 (centres unmarked) [MMV688943] | 0.75 | 
36 | Cc1cc(NC(=O)c2ccc(Oc3ccc(Cl)cc3O)o2)no1 [MMV688955] | 0.4 | 
37 | CC(=O)OC[C@H]1O[C@@H]([S-])[C@H](OC(C)=O)[C@@H](OC(C)=O)[C@@H]1OC(C)=O.CC[PH+](CC)CC.[Au] [MMV688978] | 0.85 | 
38 | CCc1cc(=O)n(C)c(SC(C)C(=O)Nc2ccc(F)cc2)n1 (centres unmarked) [MMV688980] | 1.3 | 
39 | CCCCCCCCCCCCCCCCOP(=O)([O-])OCC[N+](C)(C)C [MMV688990] | 0.7 | 
40 | CNC1C(OC2C(OC3C(O)C(O)C(NC(=N)N)C(O)C3NC(=N)N)OC(C)C2(O)C=O)OC(CO)C(O)C1O (centres unmarked) [MMV688994] | 0.56 | 
41 | C[C@@H]1[C@H](O)[C@@H](C)/C=C/C=C/C=C/C=C/C=C/C=C/C=C/[C@H](O[C@@H]2O[C@H](C)[C@@H](O)[C@H](N)[C@@H]2O)C[C@@H]2O[C@](O)(C[C@@H](O)C[C@@H](O)[C@H](O)CC[C@@H](O)C[C@@H](O)CC(=O)O[C@H]1C)C[C@H](O)[C@H]2C(=O)O [MMV689000] | 1.1 | 
42 | Cc1ccc(S(=O)(=O)Nc2ccc(CN3CCN(C(=O)c4cccc(C#N)c4)CC3)cc2)cc1 [MMV689028] | -0.5 | 
43 | COc1ccc(S(=O)(=O)Nc2ccc(CN3CCN(C(=O)c4cccc(C#N)c4)CC3)cc2)cc1 [MMV689029] | 0.156 | 
44 | Clc1ccc(CN2CCN(C3=NCCN3)CC2)cc1Cl [MMV689060] | 0.464 | 

Row | Compound | Pathogen Box screen signal/noise ratio [2] | also measured
45 | CC(=O)Nc1ccc(-c2noc(CC3CCCN(Cc4cccc(F)c4C)C3)n2)cc1 (centres unmarked) [MMV689061] | 0.9 | 
46 | FC(F)(F)c1ccc(N(c2cccnc2)C2CCN(c3ccc(C(F)(F)F)cn3)CC2)cc1 [MMV689243] | 1.4 | 
47 | O=C([C@@H](c1ccc(Cl)cc1)c1cccnc1)N1CCN(c2ccc(C(F)(F)F)cc2)CC1 [MMV689244] | 1.8 | 
48 | Nc1ncnc2c1ncn2C[C@@H](O)[C@@H](O)C(=O)O [MMV689255] | 2.5 | 
49 | CC(c1cc(Cl)cc(Cl)c1)N(C)c1ncc2c(N)nc(N)nc2n1 (centres unmarked) [MMV689437] | 0.187 | 
50 | CC(C)(C)C1CCC(CC2=C(O)C(=O)c3ccccc3C2=O)CC1 (centres unmarked) [MMV689480] | 2.3 | 
51 | CNc1cc(C)nc(C2CN(C(=O)c3n[nH]c4ccccc34)CCO2)c1 (centres unmarked) [MMV689709] | 2.1 | 
52 | COc1nc2ccc(Br)cc2cc1[C@@H](c1ccccc1)[C@@](O)(CCN(C)C)c1cccc2ccccc12 [MMV689758] | 0.444 | 
53 | COc1ccc(C2=NN(C3CCCCCC3)C(=O)[C@@H]3CC=CC[C@H]23)cc1OCCCCOc1ccc(-c2nn[nH]n2)cc1 [MMV690027] | 0.9 | 
54 | COc1ccc(C2=NN(C3CCCCCC3)C(=O)C2(C)C)cc1OCCCCOc1ccc(-c2nn[nH]n2)cc1 [MMV690028] | 2.5 | 
55 | COc1ccc(Oc2ccc([C@@H](C)N(C)c3ncc4c(N)nc(N)nc4n3)cc2)cc1 [MMV690102] | 2.1 | 
56 | C[C@H](c1ccc2c(c1)CCCC2)N(C)c1ncc2c(N)nc(N)nc2n1 [MMV690103] | 1.5 | 
57 | CCc1ccc(C(NCc2nc(N)nc(N(C)C)n2)C(C)C)cc1 (centres unmarked) [MMV1019989] | 0.5 | 
58 | O=C(Nc1nc(-c2ccccn2)cs1)C1CC1c1ccccc1F (centres unmarked) [MMV1028806] | 0.225 | 
59 | CNC(=O)CNc1nc(-c2ccccn2)nc2scc(-c3ccccc3)c12 [MMV1029203] | 0.463 | 
60 | CCCn1c(NC(=O)c2ccc3ccccc3n2)nc2ccccc21 [MMV1030799] | 0.9 | 
61 | CCNC(=O)C(C)Nc1nc(-c2cccnc2)nc2sc(C)c(C)c12 (centres unmarked) [MMV1037162] | 1.2 | 
62 | Cc1ccc(-c2nc(CN(Cc3ccccn3)C(C)C)cs2)o1 [MMV1088520] | 0.0 | 
63 | COc1cccn2c(C(=O)N3CCCCC3)c(C(F)(F)F)nc12 [MMV1110498] | 1.5 | 
64 | Cc1cc(OCC(=O)Nc2ccc(C(C)C)cc2)n(C)c(=O)c1C#N [MMV1198433] | 1.0 | 
65 | CCOC(=O)c1noc(N)c1-c1ccccc1 [MMV1236379] | 1.2 | 
66 | OC[C@H]1O[C@H](O[C@H]2O[C@H](CO)[C@@H](O)[C@H](O)[C@H]2O)[C@H](O)[C@@H](O)[C@@H]1O [Trehalose, α-D-glucopyranosyl-α-D-glucopyranoside, reference compound] |  | Hit validation Binding score [1]: 8.3; Validation binding score (MST) [1]: 8.3
